Assay results reported in patent US4871774A, “Medical treatment” (The Boots Company PLC, priority 1987, dated 1989).

Test system: dopamine reuptake; unilateral nigrostriatal lesioned rats
Assay: Ipsilateral circling behaviour of unilateral nigrostriatal (6-OHDA) lesioned rats
Format: in vivo, rat (CD)
Details: methamphetamine challenge 2 mg/kg intraperitoneal; selected rats
Excerpt: The two tracts of the nigrostriatal dopamine system are independent and are located on either side of the midline of the brain. When one tract is destroyed using the specific neurotoxin, 6-hydroxydopamine (6-OHDA), rats will display characteristic circling behaviour after injection of dopaminergic drugs. The direction of rotation, however, is dependent on the stimulus employed. Drugs which inhibit dopamine reuptake can only function on the unlesioned side of the brain and induce circling towards the lesion site (known as ipsilateral circling.)
Male CD rats (250-300 g: Charles River) were anaesthetised with `Equithesin` type anaesthetic (3.2 ml/kg i.p.) and secured in a stereotaxic frame (David Kopf Small Animal Stereotaxic Instrument DKI 900). After shaving the area, a saggital incision of 1.5-2 cm was made and skin flaps dissected from the skull. A small hole was made in the skull, using a No. 6 dental burr, to allow the tip of a 30 s.w.g. stainless steel cannula to be inserted to the left substantia nigra. This was located by using the following co-ordinates, using skull landmark bregma as the zero reference point; rostral-caudal -2.8; medial-lateral +2.0; dorsal-ventral -8.0 from the surface of the dura, all co-ordinates measured in millimetres. This system of co-ordinates is a modification of the de Groot system as described by Pellegrino et al (A stereotaxic atlas of the rat brain, 2nd Edition, Plenum Press 1979). 6-Hydroxydopamine HBr (2 μg/μl, as base: Sigma Chemical Co.) was injected into the left substantia nigra at 1 μl/min; a total of 8 μg was administered over a period of 4 minutes using an infusion pump (Braun `Perfusor` ED2). After removal of the cannula, the skin flaps were joined with a single everted suture and the animal allowed to recover.
After 21 days, the circling behaviour of the rats was examined. They were placed, individually, in circular plastic arenas (30 cm diameter×12 cm high) for 1 hour, with no access to food or water during this period. […] One `turn` consisted of rotation through 360° in either direction. As rats were always lesioned on the left side of the brain, anticlockwise turns were ipsilateral.
Control values were determined for all rats by observing their spontaneous circling behaviour in the arenas without prior dosing. The mean turns per minute was always less than 1.
The rats were challenged with an intraperitoneal dose of methamphetamine (2 mg/kg) and immediately placed in the arenas. In these experiments circling behaviour was monitored during two periods, 0-1 h and 4-5 h after dosing. Rats giving a mean of more than 5 ipsilateral turns per minute during the first hour in response to methamphetamine were used in subsequent tests. Following selection, the rats were used in groups of 5 or more rats to test the drug under investigation.

CN[C@@H](C)Cc1ccccc1 [methamphetamine, reference compound]
mean response of the group, ipsilateral turns per minute: more than 10 ipsilateral turns per minute
